Data taken from patent US20220267380A1, “Glycopeptides Increasing Lipid Synthesis” (TFCHEM, priority 2019, published 2022).

Tested on: normal human dermal fibroblasts (NHDF)
Test: Gene expression in NHDF, full transcriptome analysis with Affymetrix U219 microarray
Format: cell-based
Settings: NHDF

N[C@@H](CCCCNCC(F)(F)[C@]1(O)O[C@H](CO)[C@H](O)[C@H](O)[C@H]1O)C(=O)O [Compound 3]
effect of treatment of NHDF on lipid synthesis (transcriptional): up regulation of lipids synthesis, including fatty acids, cholesterol or ceramides | Fold change, ACOT1///ACOT2 (10 mg/ml, 24 h, vs control): 2.02 | Fold change, APOD (10 mg/ml, 24 h, vs control): 0.44 | Fold change, DHCR7 (10 mg/ml, 24 h, vs control): 2.95 | Fold change, FADS2 (10 mg/ml, 24 h, vs control): 2.20 | Fold change, GBAP1 (10 mg/ml, 24 h, vs control): 2.45 | Fold change, HACD1 (10 mg/ml, 24 h, vs control): 2.63 | Fold change, HMGCS1 (10 mg/ml, 24 h, vs control): 2.18 | Fold change, LRP8 (10 mg/ml, 24 h, vs control): 2.98 | Fold change, MVD (10 mg/ml, 24 h, vs control): 2.80 | Fold change, NCOR1 (10 mg/ml, 24 h, vs control): 0.44 | Fold change, NEU1 (10 mg/ml, 24 h, vs control): 3.17 | Fold change, NPC1 (10 mg/ml, 24 h, vs control): 2.45 | Fold change, PHLDB2 (10 mg/ml, 24 h, vs control): 2.14 | Fold change, PHYH (10 mg/ml, 24 h, vs control): 2.37 | Fold change, PLA2G15 (10 mg/ml, 24 h, vs control): 2.01 | Fold change, PLA2G16 (10 mg/ml, 24 h, vs control): 2.30 | Fold change, PRKAB2 (10 mg/ml, 24 h, vs control): 0.35 | Fold change, PTGDS (10 mg/ml, 24 h, vs control): 2.50 | Fold change, SOAT1 (10 mg/ml, 24 h, vs control): 2.08 | Fold change, SPHK1 (10 mg/ml, 24 h, vs control): 2.18 | Fold change, SREBF1 (10 mg/ml, 24 h, vs control): 2.16 | Fold change, TXNRD1 (10 mg/ml, 24 h, vs control): 2.22 | Fold change, VAC14 (10 mg/ml, 24 h, vs control): 2.10 | Fold change, SCD (10 mg/ml, 24 h, vs control, Affymetrix probe set 11715561_s_at): 4.60 | Fold change, SCD (10 mg/ml, 24 h, vs control, Affymetrix probe set 11715562_x_at): 4.82 | Fold change, SCD (10 mg/ml, 24 h, vs control, Affymetrix probe set 11715563_s_at): 4.79 | Fold change, G6PD (10 mg/ml, 24 h, vs control, Affymetrix probe set 11716292_a_at): 2.00 | Fold change, G6PD (10 mg/ml, 24 h, vs control, Affymetrix probe set 11716293_x_at): 2.04 | Fold change, INSIG1 (10 mg/ml, 24 h, vs control, Affymetrix probe set 11716338_a_at): 2.36 | Fold change, INSIG1 (10 mg/ml, 24 h, vs control, Affymetrix probe set 11716339_a_at): 2.78 | Fold change, PPT1 (10 mg/ml, 24 h, vs control, Affymetrix probe set 11716533_a_at): 2.40 | Fold change, LSS (10 mg/ml, 24 h, vs control, Affymetrix probe set 11717620_a_at): 2.41 | Fold change, EBP (10 mg/ml, 24 h, vs control, Affymetrix probe set 11717859_a_at): 2.52 | Fold change, GBA///GBAP1 (10 mg/ml, 24 h, vs control, Affymetrix probe set 11719908_a_at): 2.30 | Fold change, GM2A (10 mg/ml, 24 h, vs control, Affymetrix probe set 11719921_s_at): 2.39 | Fold change, GM2A (10 mg/ml, 24 h, vs control, Affymetrix probe set 11719923_at): 2.09 | Fold change, HSD17B14 (10 mg/ml, 24 h, vs control, Affymetrix probe set 11720588_a_at): 2.17 | Fold change, SERINC2 (10 mg/ml, 24 h, vs control, Affymetrix probe set 11721046_a_at): 2.54 | Fold change, TPP1 (10 mg/ml, 24 h, vs control, Affymetrix probe set 11725032_a_at): 2.23 | Fold change, ME1 (10 mg/ml, 24 h, vs control, Affymetrix probe set 11726265_at): 2.41 | Fold change, LSS (10 mg/ml, 24 h, vs control, Affymetrix probe set 11731324_a_at): 3.12 | Fold change, GBA///GBAP1 (10 mg/ml, 24 h, vs control, Affymetrix probe set 11736100_a_at): 2.69 | Fold change, CHKA (10 mg/ml, 24 h, vs control, Affymetrix probe set 11736285_a_at): 2.53 | Fold change, CHKA (10 mg/ml, 24 h, vs control, Affymetrix probe set 11736286_a_at): 2.73 | Fold change, ASAH1 (10 mg/ml, 24 h, vs control, Affymetrix probe set 11740582_a_at): 2.18 | Fold change, PPT1 (10 mg/ml, 24 h, vs control, Affymetrix probe set 11742107_a_at): 2.25 | Fold change, ASAH1 (10 mg/ml, 24 h, vs control, Affymetrix probe set 11743547_a_at): 2.16 | Fold change, PCYT2 (10 mg/ml, 24 h, vs control, Affymetrix probe set 11744044_s_at): 2.15 | Fold change, FADS1 (10 mg/ml, 24 h, vs control, Affymetrix probe set 11745459_a_at): 3.04 | Fold change, LPCAT3 (10 mg/ml, 24 h, vs control, Affymetrix probe set 11746281_a_at): 2.48 | Fold change, LDLR (10 mg/ml, 24 h, vs control, Affymetrix probe set 11746974_a_at): 2.37 | Fold change, GM2A (10 mg/ml, 24 h, vs control, Affymetrix probe set 11747178_x_at): 2.24 | Fold change, PCYT2 (10 mg/ml, 24 h, vs control, Affymetrix probe set 11747322_s_at): 2.72 | Fold change, LDLR (10 mg/ml, 24 h, vs control, Affymetrix probe set 11748045_x_at): 2.10 | Fold change, SERINC2 (10 mg/ml, 24 h, vs control, Affymetrix probe set 11748053_x_at): 2.92 | Fold change, TM7SF2 (10 mg/ml, 24 h, vs control, Affymetrix probe set 11748279_s_at): 2.25 | Fold change, GBA///GBAP1 (10 mg/ml, 24 h, vs control, Affymetrix probe set 11748292_a_at): 2.58 | Fold change, TPP1 (10 mg/ml, 24 h, vs control, Affymetrix probe set 11748341_a_at): 2.60 | Fold change, TPP1 (10 mg/ml, 24 h, vs control, Affymetrix probe set 11748342_x_at): 2.34 | Fold change, EBP (10 mg/ml, 24 h, vs control, Affymetrix probe set 11749332_x_at): 2.48 | Fold change, ABHD4 (10 mg/ml, 24 h, vs control, Affymetrix probe set 11749343_a_at): 2.28 | Fold change, ABHD4 (10 mg/ml, 24 h, vs control, Affymetrix probe set 11749376_a_at): 2.13 | Fold change, ME1 (10 mg/ml, 24 h, vs control, Affymetrix probe set 11750913_a_at): 2.67 | Fold change, GBA (10 mg/ml, 24 h, vs control, Affymetrix probe set 11750975_x_at): 2.34 | Fold change, GBA///GBAP1 (10 mg/ml, 24 h, vs control, Affymetrix probe set 11751085_a_at): 2.84 | Fold change, GBA (10 mg/ml, 24 h, vs control, Affymetrix probe set 11751086_x_at): 2.57 | Fold change, GBA///GBAP1 (10 mg/ml, 24 h, vs control, Affymetrix probe set 11751098_a_at): 2.57 | Fold change, DHCR24 (10 mg/ml, 24 h, vs control, Affymetrix probe set 11751337_a_at): 2.29 | Fold change, DHCR24 (10 mg/ml, 24 h, vs control, Affymetrix probe set 11751338_x_at): 2.44 | Fold change, G6PD (10 mg/ml, 24 h, vs control, Affymetrix probe set 11752486_a_at): 3.18
